{"source": "patent US7138361B2", "about": "“Herbicidal heterocycles” (E. I. du Pont de Nemours and Company, priority 2000, dated 2006)", "format_in_all_cases": "in vivo", "key": {"[1]": {"system": "barnyardgrass (Echinochloa crus-galli)", "experiment": "Test C flooded paddy test", "conditions": "for Barnyardgrass plant response rating: Flooded Paddy, scale 0 to 100, 0 no effect, 100 complete control; for Plant response rating, Barnyardgrass: flooded paddy test, scale 0 to 100 (0 no effect, 100 complete control)", "outline": "(§1)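 Ratings come from visual comparison with control plants after 12 to 14 days in the greenhouse. Each species was at the 2-leaf stage when the flooded paddy was treated. Scores run from 0, meaning no effect, to 100, meaning complete control.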"}, "[2]": {"system": "duck salad (Heteranthera limosa)", "experiment": "Test C flooded paddy test", "conditions": "for Ducksalad plant response rating: Flooded Paddy, scale 0 to 100, 0 no effect, 100 complete control; for Plant response rating, Ducksalad: flooded paddy test, scale 0 to 100 (0 no effect, 100 complete control)", "outline": "as §1"}, "[3]": {"system": "smallflower flatsedge (Cyperus difformis)", "experiment": "Test C flooded paddy test", "conditions": "for Flatsedge plant response rating: Flooded Paddy, scale 0 to 100, 0 no effect, 100 complete control; for Plant response rating, Flatsedge: flooded paddy test, scale 0 to 100 (0 no effect, 100 complete control)", "outline": "as §1"}, "[4]": {"system": "morningglory (Ipomoea hederacea)", "experiment": "Test C preemergence", "outline": "(§2)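 Each compound was dissolved in a non-phytotoxic solvent system containing a surfactant and sprayed either on freshly planted seeds (preemergence) or on young plants, 2 to 18 cm high (postemergence). Ratings after 12 to 14 greenhouse days ran from 0, no effect, to 100, complete control.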"}, "[5]": {"system": "Nightshade", "experiment": "Test C preemergence"}, "[6]": {"system": "kochia (Kochia scoparia)", "experiment": "Test C preemergence", "outline": "as §2"}, "[7]": {"system": "pigweed (Amaranthus retroflexus)", "experiment": "Test C preemergence", "outline": "as §2"}, "[8]": {"system": "lambsquarters (Chenopodium album)", "experiment": "Test C preemergence", "outline": "as §2"}, "[9]": {"system": "velvetleaf (Abutilon theophrasti)", "experiment": "Test C preemergence", "outline": "as §2"}, "[10]": {"system": "giant foxtail (Setaria faberii)", "experiment": "Test C preemergence", "outline": "as §2"}, "[11]": {"system": "Surinam grass (Brachiaria decumbens)", "experiment": "Test C preemergence", "outline": "as §2"}, "[12]": {"system": "johnsongrass (Sorghum halepense)", "experiment": "Test C preemergence", "outline": "as §2"}, "[13]": {"system": "cocklebur (Xanthium strumarium)", "experiment": "Test C preemergence", "outline": "as §2"}, "[14]": {"system": "woolly cupgrass (Eriochloa villosa)", "experiment": "Test C preemergence", "outline": "as §2"}, "[15]": {"system": "bermudagrass (Cynodon dactylon)", "experiment": "Test C preemergence", "outline": "as §2"}, "[16]": {"system": "crabgrass (Digitaria sanguinalis)", "experiment": "Test C preemergence", "outline": "as §2"}, "[17]": {"system": "Sunflower", "experiment": "Test C preemergence", "conditions": "Rate 125 g/ha; scale 0 to 100, 0 no effect, 100 complete control"}, "[18]": {"system": "goosegrass (Eleusine indica)", "experiment": "Test C preemergence", "outline": "as §2"}, "[19]": {"system": "common ragweed (Ambrosia elatior)", "experiment": "Test C preemergence", "outline": "as §2"}, "[20]": {"system": "corn (Zea mays)", "experiment": "Test C preemergence", "outline": "as §2"}, "[21]": {"system": "soybean (Glycine max)", "experiment": "Test C preemergence", "outline": "as §2"}, "[22]": {"system": "yellow nutsedge (Cyperus esculentus)", "experiment": "Test C preemergence", "outline": "as §2"}, "[23]": {"conditions": "Rate 125 g/ha, scale 0 to 100, 0 no effect, 100 complete control"}, "[24]": {"conditions": "preemergence, Rate 62 g/ha, scale 0 to 100"}, "[25]": {"conditions": "preemergence, Rate 500 g/ha, visual evaluation after 12 to 14 days"}, "[26]": {"conditions": "preemergence, Rate 250 g/ha, scale 0 to 100, 0 no effect, 100 complete control"}}}
{"compound": "CCCC(C)c1ccn(C2CCN(c3ccc(Cl)c(OC)c3)C2=O)n1", "note": "(stereo not drawn) [Compound 121]", "values": [{"measurement": "Barnyardgrass plant response rating", "setting": "[1]; Rate 250 g/ha", "value": 20}, {"measurement": "Barnyardgrass plant response rating", "setting": "[1]; Rate 500 g/ha", "value": 80}, {"measurement": "Plant response rating, Barnyardgrass", "setting": "[1]; Rate 62 g/ha", "value": 0}, {"measurement": "Plant response rating, Barnyardgrass", "setting": "[1]; Rate 125 g/ha", "value": 20}, {"measurement": "Ducksalad plant response rating", "setting": "[2]; Rate 250 g/ha", "value": 60}, {"measurement": "Ducksalad plant response rating", "setting": "[2]; Rate 500 g/ha", "value": 90}, {"measurement": "Plant response rating, Ducksalad", "setting": "[2]; Rate 62 g/ha", "value": 0}, {"measurement": "Plant response rating, Ducksalad", "setting": "[2]; Rate 125 g/ha", "value": 0}, {"measurement": "Flatsedge plant response rating", "setting": "[3]; Rate 250 g/ha", "value": 100}, {"measurement": "Flatsedge plant response rating", "setting": "[3]; Rate 500 g/ha", "value": 100}, {"measurement": "Plant response rating, Flatsedge", "setting": "[3]; Rate 62 g/ha", "value": 100}, {"measurement": "Plant response rating, Flatsedge", "setting": "[3]; Rate 125 g/ha", "value": 100}, {"measurement": "Plant response rating, Morningglory", "setting": "[4]; [23]", "value": 10}, {"measurement": "Plant response rating, Morningglory", "setting": "[4]; [24]", "value": 0}, {"measurement": "Plant response rating (0 to 100), Morningglory", "setting": "[4]; [25]", "value": 70}, {"measurement": "Plant response rating, Morningglory", "setting": "[4]; [26]", "value": 50}, {"measurement": "Plant response rating, Nightshade", "setting": "[5]; Rate 62 g/ha, scale 0 to 100", "value": 10}, {"measurement": "Plant response rating, Nightshade", "setting": "[5]; [23]", "value": 90}, {"measurement": "Plant response rating, Nightshade", "setting": "[5]; Rate 250 g/ha, scale 0 to 100, 0 no effect, 100 complete control", "value": 100}, {"measurement": "Plant response rating, Kochia", "setting": "[6]; [23]", "value": 100}, {"measurement": "Plant response rating, Kochia", "setting": "[6]; [24]", "value": 100}, {"measurement": "Plant response rating (0 to 100), Kochia", "setting": "[6]; [25]", "value": 100}, {"measurement": "Plant response rating, Kochia", "setting": "[6]; [26]", "value": 100}, {"measurement": "Plant response rating, Pigweed", "setting": "[7]; [23]", "value": 50}, {"measurement": "Plant response rating, Pigweed", "setting": "[7]; [24]", "value": 20}, {"measurement": "Plant response rating (0 to 100), Pigweed", "setting": "[7]; [25]", "value": 100}, {"measurement": "Plant response rating, Pigweed", "setting": "[7]; [26]", "value": 60}, {"measurement": "Plant response rating, Lambsquarters", "setting": "[8]; [23]", "value": 100}, {"measurement": "Plant response rating, Lambsquarters", "setting": "[8]; [24]", "value": 100}, {"measurement": "Plant response rating (0 to 100), Lambsquarters", "setting": "[8]; [25]", "value": 100}, {"measurement": "Plant response rating, Lambsquarters", "setting": "[8]; [26]", "value": 100}, {"measurement": "Plant response rating, Velvetleaf", "setting": "[9]; [23]", "value": 20}, {"measurement": "Plant response rating, Velvetleaf", "setting": "[9]; [24]", "value": 0}, {"measurement": "Plant response rating (0 to 100), Velvetleaf", "setting": "[9]; [25]", "value": 100}, {"measurement": "Plant response rating, Velvetleaf", "setting": "[9]; [26]", "value": 100}, {"measurement": "Plant response rating, Foxtail, Giant", "setting": "[10]; [23]", "value": 100}, {"measurement": "Plant response rating, Foxtail, Giant", "setting": "[10]; [24]", "value": 20}, {"measurement": "Plant response rating (0 to 100), Foxtail, Giant", "setting": "[10]; [25]", "value": 100}, {"measurement": "Plant response rating, Foxtail, Giant", "setting": "[10]; [26]", "value": 60}, {"measurement": "Plant response rating, Surinam grass", "setting": "[11]; [23]", "value": 80}, {"measurement": "Plant response rating, Surinam grass", "setting": "[11]; [24]", "value": 20}, {"measurement": "Plant response rating (0 to 100), Surinam grass", "setting": "[11]; [25]", "value": 100}, {"measurement": "Plant response rating, Surinam grass", "setting": "[11]; [26]", "value": 100}, {"measurement": "Plant response rating, Johnsongrass", "setting": "[12]; [23]", "value": 90}, {"measurement": "Plant response rating, Johnsongrass", "setting": "[12]; [24]", "value": 60}, {"measurement": "Plant response rating (0 to 100), Johnsongrass", "setting": "[12]; [25]", "value": 100}, {"measurement": "Plant response rating, Johnsongrass", "setting": "[12]; [26]", "value": 100}, {"measurement": "Plant response rating, Cocklebur", "setting": "[13]; [23]", "value": 20}, {"measurement": "Plant response rating, Cocklebur", "setting": "[13]; [24]", "value": 0}, {"measurement": "Plant response rating (0 to 100), Cocklebur", "setting": "[13]; [25]", "value": 100}, {"measurement": "Plant response rating, Cocklebur", "setting": "[13]; [26]", "value": 50}, {"measurement": "Plant response rating, Cupgrass, Woolly", "setting": "[14]; [23]", "value": 100}, {"measurement": "Plant response rating, Cupgrass, Woolly", "setting": "[14]; [24]", "value": 80}, {"measurement": "Plant response rating (0 to 100), Cupgrass, Woolly", "setting": "[14]; [25]", "value": 100}, {"measurement": "Plant response rating, Cupgrass, Woolly", "setting": "[14]; [26]", "value": 100}, {"measurement": "Plant response rating, Bermudagrass", "setting": "[15]; [23]", "value": 100}, {"measurement": "Plant response rating, Bermudagrass", "setting": "[15]; [24]", "value": 100}, {"measurement": "Plant response rating (0 to 100 where 0 is no effect and 100 is complete control), Bermudagrass", "setting": "[15]; [25]", "value": 100}, {"measurement": "Plant response rating, Bermudagrass", "setting": "[15]; [26]", "value": 100}, {"measurement": "Plant response rating, Crabgrass", "setting": "[16]; [23]", "value": 100}, {"measurement": "Plant response rating, Crabgrass", "setting": "[16]; [24]", "value": 100}, {"measurement": "Plant response rating (0 to 100), Crabgrass", "setting": "[16]; [25]", "value": 100}, {"measurement": "Plant response rating, Crabgrass", "setting": "[16]; [26]", "value": 100}, {"measurement": "Plant response rating, Sunflower", "setting": "[17]", "value": 30}, {"measurement": "Plant response rating, Goosegrass", "setting": "[18]; [23]", "value": 100}, {"measurement": "Plant response rating, Goosegrass", "setting": "[18]; [24]", "value": 100}, {"measurement": "Plant response rating (0 to 100), Goosegrass", "setting": "[18]; [25]", "value": 100}, {"measurement": "Plant response rating, Goosegrass", "setting": "[18]; [26]", "value": 100}, {"measurement": "Plant response rating, Ragweed, Common", "setting": "[19]; [23]", "value": 90}, {"measurement": "Plant response rating, Ragweed, Common", "setting": "[19]; [24]", "value": 0}, {"measurement": "Plant response rating (0 to 100), Ragweed, Common", "setting": "[19]; [25]", "value": 100}, {"measurement": "Plant response rating, Ragweed, Common", "setting": "[19]; [26]", "value": 90}, {"measurement": "Plant response rating, Corn", "setting": "[20]; [23]", "value": 20}, {"measurement": "Plant response rating, Corn", "setting": "[20]; [24]", "value": 0}, {"measurement": "Plant response rating (0 to 100), Corn", "setting": "[20]; [25]", "value": 90}, {"measurement": "Plant response rating, Corn", "setting": "[20]; [26]", "value": 70}, {"measurement": "Plant response rating, Soybean", "setting": "[21]; [23]", "value": 60}, {"measurement": "Plant response rating, Soybean", "setting": "[21]; [24]", "value": 0}, {"measurement": "Plant response rating (0 to 100), Soybean", "setting": "[21]; [25]", "value": 100}, {"measurement": "Plant response rating, Soybean", "setting": "[21]; [26]", "value": 90}, {"measurement": "Plant response rating, Nutsedge", "setting": "[22]; [23]", "value": 0}, {"measurement": "Plant response rating, Nutsedge", "setting": "[22]; [24]", "value": 0}, {"measurement": "Plant response rating (0 to 100), Nutsedge", "setting": "[22]; [25]", "value": 0}, {"measurement": "Plant response rating, Nutsedge", "setting": "[22]; [26]", "value": 0}]}
